Compound: CN1CCN(CC1)C2=CC(=C(C=C2)NC3=NC=C4C(=N3)N(C5=CC=CC=C5C(=O)N4C)C)OC [XMD8-85] + Cc1cc(Nc2cc(N3CCN(C)CC3)nc(Sc3ccc(NC(=O)C4CC4)cc3)n2)n[nH]1 [Tozasertib] (partner 0.1 µM)
Test: relative viability (nuclei count vs DMSO), 5 days (fraction); higher = more cells survive
Settings: first compound 0.08 µM
Method in brief: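 One day after seeding in 1536-well plates, lung cancer cell lines were dosed by pin tool. Dosing was either single-drug or a fixed anchor-drug dose plus five library-drug doses (not always all listed) in √10 steps. After 5 days, nuclei were stained in one fix-and-stain step and counted on 4× images, and relative viability is the nuclei count of treated wells over that of vehicle wells, given as the median of duplicate plates.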

Cell Line | relative viability
201T | 0.964
A-427 | 0.193
ABC-1 | 0.142
BEN | 0.467
CAL-12T | 0.287
EKVX | 0.404
EMC-BAC-2 | 0.293
EPLC-272H | 0.294
H3255 | 0.599
HARA | 0.103
HCC-15 | 0.394
HCC-44 | 0.802
HCC-78 | 0.407
HCC-366 | 0.138
HOP-62 | 0.371
LC-2-ad | 0.411
LCLC-97TM1 | 0.278
LCLC-103H | 0.451
LOU-NH91 | 0.644
LU99A | 0.281
LXF-289 | 0.194
NCI-H23 | 0.492
NCI-H322M | 0.427
NCI-H358 | 0.106
NCI-H441 | 0.758
NCI-H460 | 0.445
NCI-H596 | 0.75
NCI-H647 | 0.173
NCI-H650 | 0.738
SW 900 | 0.553

Same assay, conditions: first compound 0.253 µM

Cell Line | relative viability
201T | 0.975
A-427 | 0.225
ABC-1 | 0.159
CAL-12T | 0.348
EKVX | 0.34
EMC-BAC-2 | 0.275
EPLC-272H | 0.241
H3255 | 0.646
HARA | 0.42
HCC-15 | 0.294
HCC-44 | 0.898
HCC-78 | 0.465
HCC-366 | 0.128
HCC-827 | 0.437
HOP-62 | 0.342
LC-2-ad | 0.429

Cell Line | relative viability
LCLC-97TM1 | 0.23
LCLC-103H | 0.449
LK-2 | 0.156
LOU-NH91 | 0.631
LU99A | 0.257
LXF-289 | 0.216
NCI-H23 | 0.369
NCI-H322M | 0.496
NCI-H358 | 0.0979
NCI-H441 | 0.601
NCI-H460 | 0.339
NCI-H596 | 0.834
NCI-H647 | 0.195
NCI-H650 | 0.713
SW 900 | 0.657

Same assay, conditions: first compound 0.8 µM

Cell Line | relative viability
A-427 | 0.203
ABC-1 | 0.19
BEN | 0.426
CAL-12T | 0.296
EKVX | 0.41
EMC-BAC-2 | 0.285
EPLC-272H | 0.557
H3255 | 0.651
HARA | 0.104
HCC-15 | 0.398
HCC-44 | 1.15
HCC-78 | 0.397
HCC-366 | 0.0974
HCC-827 | 0.642
HOP-62 | 0.403
LC-2-ad | 0.47

Cell Line | relative viability
LCLC-97TM1 | 0.225
LCLC-103H | 0.581
LK-2 | 0.188
LOU-NH91 | 0.636
LU99A | 0.252
LXF-289 | 0.171
NCI-H23 | 0.34
NCI-H322M | 0.462
NCI-H358 | 0.119
NCI-H441 | 0.657
NCI-H460 | 0.445
NCI-H596 | 0.975
NCI-H647 | 0.29
NCI-H650 | 0.68
SW 900 | 0.557

Same assay, conditions: first compound 2.53 µM

Cell Line | relative viability
201T | 0.808
A-427 | 0.185
ABC-1 | 0.15
BEN | 0.331
CAL-12T | 0.259
EKVX | 0.427
EMC-BAC-2 | 0.239
EPLC-272H | 0.281
H3255 | 0.25
HARA | 0.101
HCC-15 | 0.167
HCC-44 | 0.51
HCC-78 | 0.434
HCC-366 | 0.0608
HCC-827 | 0.387
HOP-62 | 0.301

Cell Line | relative viability
LC-2-ad | 0.33
LCLC-97TM1 | 0.225
LCLC-103H | 0.45
LK-2 | 0.158
LOU-NH91 | 0.669
LU99A | 0.253
LXF-289 | 0.142
NCI-H23 | 0.272
NCI-H322M | 0.451
NCI-H358 | 0.11
NCI-H441 | 0.768
NCI-H460 | 0.329
NCI-H596 | 0.728
NCI-H647 | 0.202
NCI-H650 | 0.608
SW 900 | 0.424

Same assay, conditions: first compound 8 µM

Cell Line | relative viability
201T | 0.771
A-427 | 0.186
ABC-1 | 0.231
BEN | 0.457
CAL-12T | 0.214
EKVX | 0.276
EMC-BAC-2 | 0.224
EPLC-272H | 0.25
H3255 | 0.469
HARA | 0.0877
HCC-15 | 0.143
HCC-44 | 0.356
HCC-78 | 0.296
HCC-366 | 0.0744
HCC-827 | 0.365
HOP-62 | 0.177

Cell Line | relative viability
LC-2-ad | 0.34
LCLC-97TM1 | 0.168
LCLC-103H | 0.383
LK-2 | 0.181
LOU-NH91 | 0.419
LU99A | 0.239
LXF-289 | 0.166
NCI-H23 | 0.209
NCI-H322M | 0.436
NCI-H358 | 0.0877
NCI-H441 | 0.408
NCI-H460 | 0.0548
NCI-H596 | 0.488
NCI-H647 | 0.0891
NCI-H650 | 0.338
SW 900 | 0.312

From the supplement of paper PMC10307832
